Read-outs that look alike come from different tables or passages of the source.

Test [1] relates to IL-6 in human peripheral blood mononuclear cells (huPBMCs). Briefly: IL-6 inhibition in LPS-stimulated human peripheral blood mononuclear cells (HTRF). Type of test: cell-based. To be noted: Homo sapiens, PBMC, LPS 50 ng/mL, 22 hours, IL-6 HTRF. In a few lines:
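Compound-treated huPBMCs (1×10e6 cells/mL, 1% FBS-RPMI) were stimulated after 2 h with LPS (50 ng/mL) for another 22 h at 37° C. An anti-IL-6 HTRF pair reported IL-6 as the 665/620 nm ratio; activity relative to DMSO, EC50 by 4-parameter Levenberg-Marquardt fitting, duplicates.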

For test [2], the system named is SW480 colon carcinoma cells. The test can be described thus: Cell viability assay (CellTiter-Glo). In kind it is cell-based, human. The note with it: Homo sapiens, 96 h, four days, CellTiter-Glo. A general note: In ATP-based viability assays light output follows the ATP content of the culture.
The target of test [3] is recombinant DYRK1A kinase (Homo sapiens (Human), UniProt Q13627). The test can be described thus: DYRK1A kinase assay (Ser/Thr 18 peptide Z-lyte, FRET).
The target in the next test is recombinant GSK3β kinase (Homo sapiens (Human), UniProt P49841). The test can be described thus: GSK3β kinase assay (Ser/Thr 09 peptide Z-lyte, FRET).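 Also: FRET read-out as coumarin over fluorescein emission ratio, compounds incubated one hour at room temperature, IC50 from dose-response curve fit.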 In kind it is biochemical.
In test [4] the test system is Wnt activity (SW480 colon carcinoma cells stably expressing the Sp5-Luc reporter gene). The test can be described thus: Wnt activity screening assay (Sp5-Luc reporter gene assay). In kind it is cell-based, human. To be noted: Homo sapiens, 36 to 48 hours. In a few lines:
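EC50 values come from a variable-slope four-parameter fit of luminescence normalized to DMSO-only wells. The read-out follows 36–48 h incubation at 37 °C, 5% CO2, in DMEM containing 1% fetal bovine serum. Cells are hygromycin-selected SW480 stably expressing firefly luciferase under a Wnt-responsive Sp5 promoter (eight TCF/LEF sites).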
For orientation: A reporter such as luciferase makes a cellular process visible.

The subject of test [5] is LL29 cells (primary human fibroblasts derived from IPF patients), α-smooth muscle actin. Briefly: Inhibition of fibrotic process: TGF-β1-treated primary human fibroblasts, αSMA staining.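 As to all read-outs here: controls were TGF-β1-stimulated wells with DMSO vehicle as the positive reference and cells given DMSO alone as the negative reference.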 Type of test: cell-based. To be noted: Homo sapiens, Fibroblast; for EC50: 96 h, TGF-β1 20 ng/mL, 4 days, % cells positive for αSMA; for inhibition at 10 µM: read-out: percent inhibition at 10 μM (given for EC50 >10 μM), TGF-β1, αSMA, 10 μM.

Where [6] appears, read: DYRK1A kinase, head says EC50, method says IC50, ATP 30 μM.
Where [7] appears, read: GSK3β kinase, head says EC50, method says IC50, ATP 46 μM.

recombinant GSK3β kinase, sequence (P49841 whole entry): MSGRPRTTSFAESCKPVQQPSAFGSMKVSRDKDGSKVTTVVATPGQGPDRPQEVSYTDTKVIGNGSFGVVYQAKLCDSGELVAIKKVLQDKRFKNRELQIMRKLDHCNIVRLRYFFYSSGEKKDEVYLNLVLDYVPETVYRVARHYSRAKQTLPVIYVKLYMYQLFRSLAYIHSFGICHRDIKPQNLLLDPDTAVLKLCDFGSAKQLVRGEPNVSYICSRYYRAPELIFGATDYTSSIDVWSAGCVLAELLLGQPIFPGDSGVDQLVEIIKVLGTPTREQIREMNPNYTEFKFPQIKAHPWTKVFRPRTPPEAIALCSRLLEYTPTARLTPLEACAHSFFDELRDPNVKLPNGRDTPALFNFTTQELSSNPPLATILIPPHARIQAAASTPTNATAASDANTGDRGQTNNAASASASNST
Procedure for recombinant GSK3β kinase: Each compound is dissolved in DMSO as a 10 mM stock and used to prepare compound source plates. Serial dilution (1:3, 11-point dose-response curves from 10 M to 0.0003 M) and compound transfer was performed using the ECHO 550 (Labcyte, Sunnyvale, Calif.) into 1536-well black-walled round bottom plates (Corning).
This is a non-radioactive assay using fluorescence resonance energy transfer (FRET) between coumarin and fluorescein to detect kinase activity which is represented as ratio of coumarin emission/fluorescein emission.
The mixture is allowed to incubate with the representative compounds for one hour at room temperature. All reactions were performed in duplicate. Unphosphorylated (“0% Control”) and phosphorylated (“100% control”) forms of Ser/Thr 18 serve as control reactions.
After incubation, diluted Development Buffer is added to the reaction and allowed to further incubate for one hour at room temperature.
Dose-response curves are generated and inhibitory concentration (IC50) values are calculated using non-linear regression curve fit in the Dotmatics' Studies Software (Bishops Stortford, UK).

Turning to `O=C(Nc1cc2cc(-c3cncc(NC4CCNCC4)n3)ccc2cn1)C1CCCC1` [Compound 107, N-(6-(6-(Piperidin-4-ylamino)pyrazin-2-yl)isoquinolin-3-yl) cyclopentanecarboxamide], the EC50 in test [1] turned out to be 119 nM; in test [2] it was 5910 nM; in test [3] (setting [6]), 1 nM; on recombinant GSK3β kinase (setting [7]), 31 nM; in test [4] it was 266 nM; in test [5], 1270 nM.
On to `O=C(Nc1cc2cc(-c3cncc(NC4CCNCC4)n3)ccc2cn1)C1CCC(F)(F)CC1` [Compound 108, 4,4-Difluoro-N-(6-(6-(piperidin-4-ylamino)pyrazin-2-yl)isoquinolin-3-yl) cyclohexane-1-carboxamide], for which the EC50 in test [1] was determined as 385 nM; in test [2], 1560 nM; in test [3] (setting [6]), 2 nM; on recombinant GSK3β kinase (setting [7]), 92 nM; in test [4], 457 nM; in test [5], 3390 nM.
For the compound `O=C(Nc1cc2cc(-c3cncc(NC4CCNCC4)n3)ccc2cn1)c1ccc(F)cc1` [Compound 110, 4-fluoro-N-(6-(6-(piperidin-4-ylamino)pyrazin-2-yl)isoquinolin-3-yl)benzamide], the EC50 in test [1] turned out to be 1180 nM; in test [2], 326 nM; in test [3] (setting [6]) it was 2 nM; at recombinant GSK3β kinase (setting [7]), 4320 nM; in test [4] it was 116 nM; in test [5], 345 nM.
Take `O=C(Nc1cc2cc(-c3cncc(N[C@H]4CCNC[C@@H]4F)n3)ccc2cn1)C1CC1` [Compound 111, N-(6-(6-(((3S,4S)-3-Fluoropiperidin-4-yl)amino)pyrazin-2-yl)isoquinolin-3-yl)cyclopropanecarboxamide]: the EC50 in test [1] came to 106 nM; in test [2], 18 nM; in test [3] it was 1 nM; at recombinant GSK3β kinase, 4 nM; in test [4], 9 nM; in test [5], 1520 nM.
Consider `O=C(Nc1cc2cc(-c3cncc(N[C@H]4CCNC[C@@H]4F)n3)ccc2cn1)c1ccc(F)cc1` [Compound 112, 4-Fluoro-N-(6-(6-(((3S,4S)-3-fluoropiperidin-4-yl)amino)pyrazin-2-yl)isoquinolin-3-yl)benzamide], for which the EC50 in test [1] stood at 1060 nM; in test [2], 7 nM; in test [3] (setting [6]), 8 nM; on recombinant GSK3β kinase (setting [7]), 1830 nM; in test [4], 9 nM; in test [5], 975 nM.
With `CN1CCC(Nc2cncc(-c3ccc4cnc(NC(=O)C5CCC5)cc4c3)n2)CC1` [Compound 113, N-(6-(6-((1-Methylpiperidin-4-yl)amino)pyrazin-2-yl)isoquinolin-3-yl) cyclobutanecarboxamide], the concentration for a half-maximal effect (EC50) in test [1] was 383 nM; in test [2] it was 283 nM; in test [3] (setting [6]), 1 nM; at recombinant GSK3β kinase (setting [7]) it was 67 nM; in test [4], 247 nM; in test [5], more than 10000 nM. For the same compound, the inhibition at 10 µM in test [5] came to 27.3%.
Turning to `CN1CCC(Nc2cncc(-c3ccc4cnc(NC(=O)C5CCCC5)cc4c3)n2)CC1` [Compound 114, N-(6-(6-((1-Methylpiperidin-4-yl)amino)pyrazin-2-yl)isoquinolin-3-yl) cyclopentanecarboxamide], the EC50 in test [1] came out at 334 nM; in test [2], 474 nM; in test [3] (setting [6]) it was 1 nM; at recombinant GSK3β kinase (setting [7]), 48 nM; in test [4], 438 nM; in test [5] it was 175 nM.
Regarding `CN1CCC(Nc2cncc(-c3ccc4cnc(NC(=O)c5ccc(F)cc5)cc4c3)n2)CC1` [Compound 115, 4-fluoro-N-(6-(6-((1-methylpiperidin-4-yl)amino)pyrazin-2-yl)isoquinolin-3-yl)benzamide], the EC50 was 3190 nM in test [1]; 5120 nM in test [2]; 1 nM in test [3]; 8480 nM on recombinant GSK3β kinase; 39 nM in test [4]; more than 10000 nM in test [5]. In addition, the inhibition at 10 µM in test [5] worked out at 12.2%.

The term EC50 denotes the concentration giving half of the maximal effect. The inhibition is how much of the control response was suppressed.

Source of the values: patent US10653688B2, “6-(6-membered heteroaryl and aryl)isoquinolin-3-yl carboxamides and preparation and use thereof” (Samumed, LLC, priority 2017, dated 2020).
